From patent publication US10870647B2, “Imidazopyridine derivative, method for preparing same, and pharmaceutical composition containing same as active ingredient for preventing or treating cancer” (DAEGU-GYEONGBUK MEDICAL INNOVATION FOUNDATION, priority 2016, dated 2020)

Key:
Test in all cases: Kinase selectivity, scanMAX Kinase assay panel (DiscoverX), % control at 1 uM
Type in all cases: binding
[1] = target: T1, scanMAX Kinase assay panel (Homo sapiens, UniProt Q9BXA7); conditions: TSSK1B; 1 uM; read-out: Percent Control (%)
T1 construct: purchased DiscoverX
T1 sequence (Q9BXA7 1-367): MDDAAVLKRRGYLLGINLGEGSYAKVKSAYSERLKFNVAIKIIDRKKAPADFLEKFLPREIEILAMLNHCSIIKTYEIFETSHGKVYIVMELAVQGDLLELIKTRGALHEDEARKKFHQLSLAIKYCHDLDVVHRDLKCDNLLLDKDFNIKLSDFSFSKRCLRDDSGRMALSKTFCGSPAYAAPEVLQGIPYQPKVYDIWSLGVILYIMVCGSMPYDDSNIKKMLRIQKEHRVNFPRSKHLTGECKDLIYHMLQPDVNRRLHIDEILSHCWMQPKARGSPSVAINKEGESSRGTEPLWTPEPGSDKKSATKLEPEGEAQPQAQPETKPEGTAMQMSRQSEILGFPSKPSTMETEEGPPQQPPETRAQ
How it was run: (§1)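 Single-point screen at 1 uM compound in DMSO. Lower % control means stronger inhibition, with the cutoff for activity set at <35%.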

[2] = target: T2, scanMAX Kinase assay panel (Homo sapiens, UniProt P14616); conditions: INSRR; 1 uM; read-out: Percent Control (%)
T2 construct: purchased DiscoverX
T2 sequence (P14616 27-1297): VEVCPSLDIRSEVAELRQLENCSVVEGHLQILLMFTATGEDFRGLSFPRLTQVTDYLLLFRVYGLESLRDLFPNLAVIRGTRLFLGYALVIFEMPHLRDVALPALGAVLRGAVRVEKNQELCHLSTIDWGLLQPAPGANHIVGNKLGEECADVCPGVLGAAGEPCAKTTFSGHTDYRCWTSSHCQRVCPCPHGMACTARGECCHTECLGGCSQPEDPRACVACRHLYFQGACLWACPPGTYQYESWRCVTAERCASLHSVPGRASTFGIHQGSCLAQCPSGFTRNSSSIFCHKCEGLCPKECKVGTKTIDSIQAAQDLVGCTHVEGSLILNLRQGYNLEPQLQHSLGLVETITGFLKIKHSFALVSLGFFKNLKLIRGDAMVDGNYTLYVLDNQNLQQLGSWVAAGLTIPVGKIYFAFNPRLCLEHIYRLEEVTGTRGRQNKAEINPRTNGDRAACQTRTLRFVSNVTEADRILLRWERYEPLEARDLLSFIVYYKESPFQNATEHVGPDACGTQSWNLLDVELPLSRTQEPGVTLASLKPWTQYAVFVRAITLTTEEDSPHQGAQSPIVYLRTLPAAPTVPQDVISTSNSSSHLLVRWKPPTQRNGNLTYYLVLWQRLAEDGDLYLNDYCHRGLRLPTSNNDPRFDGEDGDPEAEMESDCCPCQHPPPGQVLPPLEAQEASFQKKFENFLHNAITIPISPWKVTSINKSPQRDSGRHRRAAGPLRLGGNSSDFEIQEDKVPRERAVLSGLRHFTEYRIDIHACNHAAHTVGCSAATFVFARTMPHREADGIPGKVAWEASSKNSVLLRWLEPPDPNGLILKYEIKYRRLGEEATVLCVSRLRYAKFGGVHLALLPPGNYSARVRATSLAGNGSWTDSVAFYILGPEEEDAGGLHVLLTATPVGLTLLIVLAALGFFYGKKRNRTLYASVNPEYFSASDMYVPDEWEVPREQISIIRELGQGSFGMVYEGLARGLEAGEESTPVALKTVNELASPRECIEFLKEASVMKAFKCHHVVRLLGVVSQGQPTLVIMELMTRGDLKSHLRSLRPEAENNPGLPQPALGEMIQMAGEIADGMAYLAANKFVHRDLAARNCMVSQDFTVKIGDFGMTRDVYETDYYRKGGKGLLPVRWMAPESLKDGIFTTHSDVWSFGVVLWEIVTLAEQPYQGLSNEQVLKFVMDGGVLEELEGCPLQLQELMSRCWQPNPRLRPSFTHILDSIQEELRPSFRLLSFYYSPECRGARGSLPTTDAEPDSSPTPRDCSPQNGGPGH
How it was run: as §1

[3] = target: T3, scanMAX Kinase assay panel (Homo sapiens, UniProt Q6ZWH5); conditions: NEK10; 1 uM; read-out: Percent Control (%)
T3 construct: purchased DiscoverX
T3 sequence (Q6ZWH5 1-1172): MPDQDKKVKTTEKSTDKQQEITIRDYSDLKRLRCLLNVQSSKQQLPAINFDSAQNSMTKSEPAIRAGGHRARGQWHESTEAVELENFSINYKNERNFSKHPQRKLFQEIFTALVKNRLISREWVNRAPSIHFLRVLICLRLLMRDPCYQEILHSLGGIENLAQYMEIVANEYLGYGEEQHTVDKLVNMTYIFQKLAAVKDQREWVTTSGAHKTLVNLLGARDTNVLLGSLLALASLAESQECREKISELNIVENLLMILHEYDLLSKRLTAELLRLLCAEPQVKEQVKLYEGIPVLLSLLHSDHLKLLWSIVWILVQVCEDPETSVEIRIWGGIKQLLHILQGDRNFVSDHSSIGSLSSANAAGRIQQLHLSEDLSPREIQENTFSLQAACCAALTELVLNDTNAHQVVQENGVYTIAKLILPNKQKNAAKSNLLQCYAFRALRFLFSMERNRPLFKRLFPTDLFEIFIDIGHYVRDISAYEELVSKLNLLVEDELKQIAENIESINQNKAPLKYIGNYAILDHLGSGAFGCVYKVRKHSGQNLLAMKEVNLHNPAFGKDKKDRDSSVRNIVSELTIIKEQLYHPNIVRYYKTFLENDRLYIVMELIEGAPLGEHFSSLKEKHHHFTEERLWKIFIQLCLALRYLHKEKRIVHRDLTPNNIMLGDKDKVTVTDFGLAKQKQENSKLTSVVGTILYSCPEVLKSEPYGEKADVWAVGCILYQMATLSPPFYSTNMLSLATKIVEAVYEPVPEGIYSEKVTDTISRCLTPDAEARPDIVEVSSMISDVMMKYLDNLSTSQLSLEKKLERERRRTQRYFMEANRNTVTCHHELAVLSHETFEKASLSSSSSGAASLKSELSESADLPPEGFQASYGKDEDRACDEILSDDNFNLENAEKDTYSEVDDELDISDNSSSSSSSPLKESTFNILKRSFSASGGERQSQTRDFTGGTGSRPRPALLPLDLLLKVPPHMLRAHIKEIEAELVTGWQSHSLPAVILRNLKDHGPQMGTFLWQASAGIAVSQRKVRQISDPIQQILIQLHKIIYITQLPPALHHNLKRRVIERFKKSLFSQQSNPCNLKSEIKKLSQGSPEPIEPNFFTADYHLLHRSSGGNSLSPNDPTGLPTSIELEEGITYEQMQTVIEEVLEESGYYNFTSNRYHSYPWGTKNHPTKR
How it was run: as §1

[4] = target: T4, scanMAX Kinase assay panel (Homo sapiens, UniProt O15111); conditions: IKK-alpha; 1 uM; read-out: Percent Control (%)
T4 construct: purchased DiscoverX
T4 sequence (O15111 1-745): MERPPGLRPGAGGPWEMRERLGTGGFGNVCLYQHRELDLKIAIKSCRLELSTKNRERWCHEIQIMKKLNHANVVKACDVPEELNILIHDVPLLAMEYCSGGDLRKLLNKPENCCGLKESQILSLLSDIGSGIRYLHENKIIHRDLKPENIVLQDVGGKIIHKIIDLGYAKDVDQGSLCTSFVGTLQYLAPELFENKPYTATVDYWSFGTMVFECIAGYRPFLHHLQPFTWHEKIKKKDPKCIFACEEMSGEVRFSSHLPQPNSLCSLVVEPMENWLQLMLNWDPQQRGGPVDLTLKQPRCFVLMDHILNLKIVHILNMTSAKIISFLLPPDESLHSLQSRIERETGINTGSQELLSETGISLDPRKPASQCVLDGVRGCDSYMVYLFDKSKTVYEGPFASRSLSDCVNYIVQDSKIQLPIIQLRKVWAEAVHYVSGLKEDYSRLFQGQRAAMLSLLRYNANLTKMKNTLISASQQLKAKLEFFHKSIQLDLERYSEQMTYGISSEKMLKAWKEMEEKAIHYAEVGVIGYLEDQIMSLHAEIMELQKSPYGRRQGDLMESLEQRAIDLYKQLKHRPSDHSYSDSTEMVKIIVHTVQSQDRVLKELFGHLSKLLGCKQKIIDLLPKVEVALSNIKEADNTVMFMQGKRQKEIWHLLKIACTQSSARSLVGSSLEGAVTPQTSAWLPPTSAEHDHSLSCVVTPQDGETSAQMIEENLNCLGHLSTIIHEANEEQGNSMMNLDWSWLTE
How it was run: as §1

[5] = target: T5, scanMAX Kinase assay panel (Homo sapiens, UniProt Q9UPE1); conditions: SRPK3; 1 uM; read-out: Percent Control (%)
T5 construct: purchased DiscoverX
T5 sequence (Q9UPE1 whole entry): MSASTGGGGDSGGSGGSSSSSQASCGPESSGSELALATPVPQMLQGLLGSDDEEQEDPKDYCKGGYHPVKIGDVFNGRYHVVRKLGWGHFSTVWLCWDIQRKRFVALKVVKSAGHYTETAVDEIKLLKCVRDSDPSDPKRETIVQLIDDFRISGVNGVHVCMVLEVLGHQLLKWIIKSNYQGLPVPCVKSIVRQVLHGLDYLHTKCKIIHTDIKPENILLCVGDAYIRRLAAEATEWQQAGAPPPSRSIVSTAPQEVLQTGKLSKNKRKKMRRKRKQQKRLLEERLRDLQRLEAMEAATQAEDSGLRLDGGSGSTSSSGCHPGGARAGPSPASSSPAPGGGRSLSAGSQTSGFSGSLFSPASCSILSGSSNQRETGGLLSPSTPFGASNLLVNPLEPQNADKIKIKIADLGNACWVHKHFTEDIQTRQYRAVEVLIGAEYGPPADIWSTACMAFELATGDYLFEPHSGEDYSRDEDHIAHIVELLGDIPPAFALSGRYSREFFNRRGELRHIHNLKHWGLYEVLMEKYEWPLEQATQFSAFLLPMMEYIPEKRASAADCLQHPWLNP
How it was run: as §1

[6] = target: T6, scanMAX Kinase assay panel (Homo sapiens, UniProt Q06187); conditions: BTK; 1 uM; read-out: Percent Control (%)
T6 construct: purchased DiscoverX
T6 sequence (Q06187 whole entry): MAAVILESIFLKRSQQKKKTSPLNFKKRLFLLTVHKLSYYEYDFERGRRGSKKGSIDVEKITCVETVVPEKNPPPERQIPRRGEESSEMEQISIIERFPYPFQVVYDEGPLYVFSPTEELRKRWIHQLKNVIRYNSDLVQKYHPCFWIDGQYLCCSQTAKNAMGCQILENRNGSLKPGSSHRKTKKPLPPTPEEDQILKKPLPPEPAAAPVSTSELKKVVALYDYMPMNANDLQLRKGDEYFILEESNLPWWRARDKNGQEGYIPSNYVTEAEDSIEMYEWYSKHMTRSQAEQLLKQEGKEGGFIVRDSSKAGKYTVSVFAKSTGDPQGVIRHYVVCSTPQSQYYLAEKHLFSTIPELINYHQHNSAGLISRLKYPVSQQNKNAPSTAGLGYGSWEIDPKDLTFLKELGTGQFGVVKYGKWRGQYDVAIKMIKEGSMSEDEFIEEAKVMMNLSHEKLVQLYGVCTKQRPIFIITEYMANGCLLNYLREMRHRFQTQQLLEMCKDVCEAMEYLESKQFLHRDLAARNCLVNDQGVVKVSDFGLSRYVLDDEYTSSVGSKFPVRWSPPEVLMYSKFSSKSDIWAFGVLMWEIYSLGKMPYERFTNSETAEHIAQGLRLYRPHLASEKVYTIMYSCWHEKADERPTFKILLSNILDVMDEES
How it was run: as §1

[7] = target: T7, scanMAX Kinase assay panel (Homo sapiens, UniProt P53350); conditions: PLK1; 1 uM; read-out: Percent Control (%)
T7 construct: purchased DiscoverX
T7 sequence (P53350 whole entry): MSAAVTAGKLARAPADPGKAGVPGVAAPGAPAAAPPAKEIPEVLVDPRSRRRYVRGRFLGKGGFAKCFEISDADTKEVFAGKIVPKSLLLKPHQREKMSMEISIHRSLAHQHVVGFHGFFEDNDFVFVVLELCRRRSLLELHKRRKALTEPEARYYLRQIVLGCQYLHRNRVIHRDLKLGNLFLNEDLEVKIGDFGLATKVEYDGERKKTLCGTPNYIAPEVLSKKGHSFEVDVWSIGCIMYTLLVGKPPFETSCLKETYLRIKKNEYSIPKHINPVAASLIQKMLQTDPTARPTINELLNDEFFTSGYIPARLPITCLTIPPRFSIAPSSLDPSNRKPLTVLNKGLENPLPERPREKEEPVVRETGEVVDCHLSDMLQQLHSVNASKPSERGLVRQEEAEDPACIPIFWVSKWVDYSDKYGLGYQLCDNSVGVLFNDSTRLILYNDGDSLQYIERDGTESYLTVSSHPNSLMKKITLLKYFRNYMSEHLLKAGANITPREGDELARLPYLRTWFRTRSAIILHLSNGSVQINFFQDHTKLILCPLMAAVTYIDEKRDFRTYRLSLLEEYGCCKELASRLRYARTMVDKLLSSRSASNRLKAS
How it was run: as §1

| SMILES | remaining binding at 1 µM [1] | remaining binding at 1 µM [2] | remaining binding at 1 µM [3] | remaining binding at 1 µM [4] | remaining binding at 1 µM [5] | remaining binding at 1 µM [6] | remaining binding at 1 µM [7] |
| --- | --- | --- | --- | --- | --- | --- | --- |
| Cc1ccc(NC(=O)C2(C(=O)Nc3ccc(F)cc3)CC2)cc1C#Cc1cnc2c(Nc3cnn(C(C)C)c3)cccn12 [Example 78] | 100% | 93% | 100% | 100% | 100% | 100% | 100% |
| Cc1cn(-c2cc(NC(=O)c3ccc(C)c(C#Cc4cnc5c(Nc6cnn(C)c6)cccn45)c3)cc(C(F)(F)F)c2)cn1 [Example 12, 4-methyl-N-(3-(4-methyl-1H-imidazol-1-yl)-5-(trifluoromethyl)phenyl)-3-((8-((1-methyl-1H-pyrazol-4-yl)amino)imidazo[1,2-a]pyridin-3-yl)ethynyl)benzamide] | 61% | 95% | 100% | 28% | 100% | 37% | 100% |
| Cc1ccc(C(=O)Nc2ccc(CN3CCN(C)CC3)c(C(F)(F)F)c2)cc1C#Cc1cnc2c(Nc3cnn(C)c3)cccn12 [Example 1, 4-methyl-3-((8-((1-methyl-1H-pyrazol-4-yl)amino)imidazo[1,2-a]pyridin-3-yl)ethynyl)-N-(4-((4-methylpiperazin-1-yl)methyl)-3-(trifluoromethyl)phenyl)benzamide] | 95% | 47% | 100% | 2% | 82% | 1% | 77% |
